# Key:
# [1] = GVS (Gravimetric Vapor Sorption) and XRPD analysis post GVS; assay type: physicochemical
# [2] = Storage stability: XRPD and HPLC analysis post storage at 40° C./75% RH or 25° C./97% RH; assay type: physicochemical; details: three days
# From the text: Samples were run under ambient conditions as flat plate specimens using powder as received. The sample was gently packed into a cavity cut into polished, zero-background (510) silicon wafer. The sample was rotated in its own plane during analysis.
Hygroscopicity by GVS [1],GVS uptake ([1]; from 0 to 90% RH) [%],Appearance post storage [2],Structure (SMILES)
hygroscopic,10.0,–,"CS(=O)(=O)O.C[C@@H](O)[C@H]1C(=O)N2C(C(=O)OCOC(=O)C(C)(C)C)=C(SC3CN(C4=NCCS4)C3)[C@H](C)[C@H]12 [Example 8, Tebeipenem Pivoxil Methane Sulfonate Salt (MSA)]"
–,–,deliquesced,"CC(O)C1C(=O)N2C(C(=O)OCOC(=O)C(C)(C)C)=C(SC3CN(C4=NCCS4)C3)C(C)C12.O=S(=O)(O)CCS(=O)(=O)O (stereo not drawn) [Example 13, Tebipenem Pivoxil Edisylate (EDSA) Salt]"
